The record followed here is patent US8802895B2, “Amide derivatives of benzene-sulfonanilide, pharmaceutical composition thereof and method for cancer treatment using the same” (Cleveland State University, priority 2010, dated 2014).

For one assay, the system named is SKBR-3 cells. Briefly: MTT cell viability assay with SKBR-3 cells. The settings on record: Homo sapiens, SK-BR-3. Format: cell-based. As to the method:
SKBR-3 cells were obtained from ATCC (Rockville, Md.). […] Bovine serum was heat inactivated for 30 min in a 56° C. water bath before use. Cell cultures were grown at 37° C., in a humidified atmosphere of 5% CO2 in a Hereaus CO2 incubator. For all experiments, cells were seeded in 96 well plates with 5000 cells/well density.
Cells were grown in custom medium in 96-well, flat-bottomed plates for 24 h, and were exposed to various concentrations of nimesulide derivatives dissolved in DMSO (final concentration≦0.1%) in media for different time intervals. Controls received DMSO vehicle at a concentration equal to that in drug-treated cells. […] Supernatants were removed from the wells, and the reduced 3-(4,5-dimethylthiazol-2-yl)-2,5-diphenyl-2H-tetrazolium bromide dye was solubilized in 200 μl/well DMSO. Absorbance at 570 nm was determined on a plate reader.
A general note: Tetrazolium dyes change colour on reduction, which living cells bring about.

A further assay relates to cells. Briefly: Primary mechanism study: cell viability with compound #10 and 2-APB (FIG. 10). The assay is classed as cell-based. The settings on record: 2-APB added two hours before compound #10; cell viability after 48 hours.
[1] abbreviates: SKBR-3 cells, cell viability, read-out: IC50.

Like-named read-outs stand apart in the source and are kept apart here.

For `COc1ccc(C(=O)Nc2ccc(N(C)S(C)(=O)=O)c(OCc3cc(OC)ccc3OC)c2)cc1` [Compound #41, N-[3-(2,5-dimethoxy-benzyloxy)-4-(methanesulfonyl-methyl-amino)-phenyl]-4-methoxy-benzamide], the IC50 in the assay with SKBR-3 cells (setting [1]) came to 0.87 ± 0.33 nM.
On the same count and under the same terms, then `COc1ccc(OC)c(COc2cc(NC(=O)c3ccc(I)cc3)ccc2N(C)S(C)(=O)=O)c1` [Compound #40, N-[3-(2,5-dimethoxyl-benzyloxy)-4-(methanesulfonyl-methyl-amino)-phenyl]-4-iodo-benzamide], with 1.8 ± 0.7 nM.
For the compound `COc1ccc(OC)c(COc2cc(NC(=O)c3ccc(Br)cc3)ccc2N(C)S(C)(=O)=O)c1` [Compound #42, N-[3-(2,5-dimethoxy-benzyloxy)-4-(methanesulfonyl-methyl-amino)-phenyl]-4-bromobenzamide], in the assay with SKBR-3 cells, the IC50 amounted to 3.5 ± 1.9 nM.
`COc1ccc(OC)c(COc2cc(NC(=O)c3ccc(OC)c(OC)c3)ccc2N(C)S(C)(=O)=O)c1` [Compound #44, N-[3-(2,5-dimethoxyl-benzyloxy)-4-(methanesulfonyl-methyl-amino)-phenyl]-3,4-dimethoxy-benzamide]: in the assay with SKBR-3 cells (setting [1]), the IC50 came out at 2.6 ± 1.3 nM.
With `NCCOB(c1ccccc1)c1ccccc1` [Compound 2-APB, 2-aminoethoxydiphenyl borate, reference compound], in the assay with cells, the “rescue of cell death from compound #10 treatment (cell viability)” value is “can partially rescue the cell death from compound #10 treatment”.
`COc1ccc(OC)c(COc2cc(NC(=O)c3ccc4ccccc4c3)ccc2N(C)S(C)(=O)=O)c1` [Compound #45, N-[3-(2,5-dimethoxyl-benzyloxy)-4-(methanesulfonyl-methyl-amino)-phenyl]-2-naphthalenecarboxamide]: the IC50 in the assay on SKBR-3 cells (setting [1]) stood at 16.6 ± 7.7 nM.
For the compound `COc1ccc(OC)c(COc2cc(NC(=O)c3ccc4c(c3)OCO4)ccc2N(C)S(C)(=O)=O)c1` [Compound #43, N-[3-(2,5-dimethoxyl-benzyloxy)-4-(methanesulfonyl-methyl-amino)-phenyl]-1,3-benzodioxole-5-carboxamide], the IC50 in the assay on SKBR-3 cells stood at 7.5 ± 2.8 nM.

A word on the IC50: it is the concentration needed to halve the response being measured.
